Article PMC10340592, “Extraction Efficiency and Alpha-Glucosidase Inhibitory Activities of Green Tea Catechins by Different Infusion Methods” (Foods, 2023)

Columns and labels:
rat alpha-glucosidase = assay: Inhibitory activity on rat alpha-glucosidase (rat intestinal acetone powder enzyme, maltose substrate, glucose read-out); type: biochemical; conditions: mean ± SD
Procedure: Inhibitory activity on rat alpha-glucosidase was measured as described previously with some modification. Rat alpha-glucosidase protein solution was extracted from rat intestinal acetone powders using the ultrasonication method. Briefly, 100 mg of intestinal acetone powders from rats were added to 1.0 mL of a 0.1 M maleic acid/disodium maleate buffer solution at pH 6.0. Then, one cycle of 30 s of ultrasonication and 30 s of break were repeated 6 times in ice-cold water, and the residue was separated by centrifugation (3000 rpm, 30 min, 4 °C). The supernatant was collected as the enzyme solution for experiments. Then, 50 µL of 4% maltose (w/v) and 25 µL of sample solution (GTEs or catechins) were added to a microtube and preincubated at 37 °C for 3 min. After that, 25 µL of the above enzyme solution was added and incubated at 37 °C for 30 min. Consequently, 400 µL of ultrapure water was added and inactivated at 100 °C for 4 min. After 100 µL of the inactivated reaction solution and 150 µL of color reagent (LabAssay™ Glucose kit) were mixed, the glucose contents (mg/dL) were measured at 505 nm through the spectrometer (Infinite 200 Pro MPlex, Tecan Ltd., Männedorf, Switzerland) according to the manufacturer’s instructions with the standard glucose curve. […] The inhibitory activity of each sample was calculated as follows:Inhibitory activity (%) = 100 − {(Cs − Csb)/(Cc − Cb)} × 100 • Cc: Glucose content of the negative control; • Cb: Glucose content of the blank; • Cs: Glucose content of the sample; • Csb: Glucose content of the sample blank.

human alpha-glucosidase = target: T1, human alpha-glucosidase (Homo sapiens, UniProt P14410); assay: Inhibitory activity on human alpha-glucosidase in differentiated Caco-2 cells (maltose substrate); type: cell-based; conditions: mean ± SD
T1 construct: cultured for 14 days to differentiate into small intestinal epithelial-like cells; host or cells: differentiated Caco-2 cells
Procedure: Inhibitory activity on human alpha-glucosidase was measured using differentiated Caco-2 cells as described previously with some modification. Briefly, Caco-2 cells were purchased from Riken Bioresource Research Center (Tsukuba, Japan) and cultured in Minimal Essential Medium (MEM) supplemented with 20% fetal bovine serum, 1% penicillin-streptomycin-glutamine, and 1% non-essential amino acids at 37 °C in an atmosphere of 5% CO2. After passaging, cells (2.0 × 10^4 cells/well) were seeded in 48-well plates and cultured for 14 days to differentiate into small intestinal epithelial-like cells. After 14 days, cells were washed twice with PBS, and 150 µL of sample solution at each concentration as well as 150 µL of 3 mM maltose were added. Each sample and maltose solution were dissolved in PBS. The cells were further incubated for 2 h at 37 °C in an atmosphere of 5% CO2. Then, 100 µL of cell culture supernatant was mixed with 150 µL of color reagent and measured at 505 nm through the spectrometer (Infinite 200 Pro MPlex, Tecan Ltd., Männedorf, Switzerland). The inhibitory activity of the sample was calculated in the same way as in the rat alpha-glucosidase experiment.

T1 sequence (P14410 whole entry): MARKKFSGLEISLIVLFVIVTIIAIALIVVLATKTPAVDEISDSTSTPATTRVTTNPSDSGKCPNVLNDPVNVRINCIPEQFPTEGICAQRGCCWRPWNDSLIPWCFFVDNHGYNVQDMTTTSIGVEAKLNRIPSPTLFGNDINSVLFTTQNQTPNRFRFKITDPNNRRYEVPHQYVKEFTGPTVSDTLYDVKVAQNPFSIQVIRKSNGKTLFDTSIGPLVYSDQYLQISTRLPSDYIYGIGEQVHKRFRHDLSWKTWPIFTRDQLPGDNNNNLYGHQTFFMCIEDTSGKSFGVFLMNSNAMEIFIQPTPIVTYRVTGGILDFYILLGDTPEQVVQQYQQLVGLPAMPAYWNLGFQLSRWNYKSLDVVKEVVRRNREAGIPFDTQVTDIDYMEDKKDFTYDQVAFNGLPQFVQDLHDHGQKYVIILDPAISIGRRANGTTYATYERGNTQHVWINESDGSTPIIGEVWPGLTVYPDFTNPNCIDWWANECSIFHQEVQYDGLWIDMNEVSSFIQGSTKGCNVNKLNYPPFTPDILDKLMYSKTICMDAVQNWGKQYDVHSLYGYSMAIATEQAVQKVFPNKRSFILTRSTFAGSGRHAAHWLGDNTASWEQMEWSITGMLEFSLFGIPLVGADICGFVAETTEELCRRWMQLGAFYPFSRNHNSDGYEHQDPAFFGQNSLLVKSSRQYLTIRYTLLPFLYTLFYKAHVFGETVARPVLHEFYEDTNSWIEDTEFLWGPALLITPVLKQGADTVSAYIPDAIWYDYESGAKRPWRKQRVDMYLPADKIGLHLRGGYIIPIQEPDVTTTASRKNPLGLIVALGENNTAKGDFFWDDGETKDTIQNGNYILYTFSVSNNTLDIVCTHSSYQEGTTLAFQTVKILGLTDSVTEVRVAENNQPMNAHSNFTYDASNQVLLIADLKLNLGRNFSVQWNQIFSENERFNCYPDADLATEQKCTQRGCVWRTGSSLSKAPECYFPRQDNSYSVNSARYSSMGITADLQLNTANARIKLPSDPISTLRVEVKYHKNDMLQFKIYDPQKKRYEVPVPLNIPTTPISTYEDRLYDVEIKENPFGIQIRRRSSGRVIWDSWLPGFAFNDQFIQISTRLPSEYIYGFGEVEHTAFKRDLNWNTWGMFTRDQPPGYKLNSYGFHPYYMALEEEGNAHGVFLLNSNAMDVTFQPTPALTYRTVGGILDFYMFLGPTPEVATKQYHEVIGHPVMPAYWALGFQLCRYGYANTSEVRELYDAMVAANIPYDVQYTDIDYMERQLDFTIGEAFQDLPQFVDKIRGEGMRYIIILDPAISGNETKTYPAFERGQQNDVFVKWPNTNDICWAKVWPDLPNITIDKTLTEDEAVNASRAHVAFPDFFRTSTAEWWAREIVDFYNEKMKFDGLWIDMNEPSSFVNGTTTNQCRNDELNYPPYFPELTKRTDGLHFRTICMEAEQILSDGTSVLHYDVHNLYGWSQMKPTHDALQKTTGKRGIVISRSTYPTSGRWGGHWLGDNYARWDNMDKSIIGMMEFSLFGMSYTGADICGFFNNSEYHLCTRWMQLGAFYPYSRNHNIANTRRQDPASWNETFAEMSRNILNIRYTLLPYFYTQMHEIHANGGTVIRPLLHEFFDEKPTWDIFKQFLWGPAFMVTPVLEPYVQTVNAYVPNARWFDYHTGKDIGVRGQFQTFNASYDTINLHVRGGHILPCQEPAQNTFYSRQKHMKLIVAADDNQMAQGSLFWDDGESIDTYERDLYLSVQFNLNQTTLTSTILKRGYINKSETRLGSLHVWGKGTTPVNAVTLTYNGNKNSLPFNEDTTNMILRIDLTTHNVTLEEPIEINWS

| IC50 (rat alpha-glucosidase) [µM] | IC50 (human alpha-glucosidase) [µM] | Compound |
| --- | --- | --- |
| 1200 ± 79.6 | – | Oc1cc(O)c2c(c1)O[C@H](c1ccc(O)c(O)c1)[C@@H](O)C2 [(+)C, (+)-catechin] |
| 46 ± 3.73 | 90.7 ± 15.8 | O=C(O[C@@H]1Cc2c(O)cc(O)cc2O[C@@H]1c1cc(O)c(O)c(O)c1)c1cc(O)c(O)c(O)c1 [EGCg, (−)-epigallocatechin-3-gallate] |
| 2.17 ± 0.23 | – | C[C@H]1O[C@H](O[C@H]2[C@H](O)[C@@H](O)[C@@H](O[C@H]3[C@H](O)[C@@H](O)C(O)O[C@@H]3CO)O[C@@H]2CO)[C@H](O)[C@@H](O)[C@@H]1N[C@H]1C=C(CO)[C@@H](O)[C@H](O)[C@H]1O (some centres unmarked) [acarbose, reference compound] |

Continued, molecule first:

| Compound | IC50 (rat alpha-glucosidase) [µM] | IC50 (human alpha-glucosidase) [µM] |
| --- | --- | --- |
| O=C(O[C@@H]1Cc2c(O)cc(O)cc2O[C@H]1c1ccc(O)c(O)c1)c1cc(O)c(O)c(O)c1 [Cg, (−)-catechin-3-gallate] | 112 ± 7.8 | – |
| Oc1cc(O)c2c(c1)O[C@H](c1ccc(O)c(O)c1)[C@H](O)C2 [EC, (−)-epicatechin] | 675 ± 15.7 | 134 ± 2.2 |
| O=C(O[C@@H]1Cc2c(O)cc(O)cc2O[C@@H]1c1ccc(O)c(O)c1)c1cc(O)c(O)c(O)c1 [ECg, (−)-epicatechin-3-gallate] | 96.9 ± 4.5 | 78.4 ± 15.2 |
| Oc1cc(O)c2c(c1)O[C@H](c1cc(O)c(O)c(O)c1)[C@H](O)C2 [EGC, (−)-epigallocatechin] | 713 ± 35.3 | 214 ± 3.8 |
| O=C(O)c1cc(O)c(O)c(O)c1 [GA, gallic acid, reference compound] | 1030 ± 64.5 | – |
| Oc1cc(O)c2c(c1)O[C@@H](c1cc(O)c(O)c(O)c1)[C@H](O)C2 [GC, (−)-gallocatechin] | 798 ± 26.8 | – |
| O=C(O[C@@H]1Cc2c(O)cc(O)cc2O[C@H]1c1cc(O)c(O)c(O)c1)c1cc(O)c(O)c(O)c1 [GCg, (−)-gallocatechin-3-gallate] | 161 ± 2.4 | – |
